Assay results from ChEMBL document CHEMBL5346912, “Discovery of 3,5-diaryl-1H-pyrazol-based ureas as potent RET inhibitors” (Eur J Med Chem, 2023).
Calls of active or inactive are those of the source. The rule behind the calls is not given here.

Experiments:
[1] = target: T1, Proto-oncogene tyrosine-protein kinase receptor Ret (Homo sapiens, UniProt P07949); test: Binding affinity to RET (unknown origin) assessed as dissociation constant in presence of ATP by FRET based Z'-Lyte assay
[2] = system: BaF3; test: Antiproliferative activity against mouse BaF3 cells expressing CCDC6-RET incubated for 72 hrs by CCK8 assay; format: functional, cell-based; settings: BaF3, 72 h
[3] = system: BaF3; test: Antiproliferative activity against mouse BaF3 cells expressing CCDC6-RET-V804M incubated for 72 hrs by CCK8 assay; format: functional, cell-based; settings: BaF3, 72 h
[4] = system: BaF3; test: Antiproliferative activity against mouse BaF3 cells expressing CCDC6-RET-G810C incubated for 72 hrs by CCK8 assay; format: functional, cell-based; settings: BaF3, 72 h
[5] = system: BaF3; test: Antiproliferative activity against mouse BaF3 cells expressing CCDC6-RET-G810R incubated for 72 hrs by CCK8 assay; format: functional, cell-based; settings: BaF3, 72 h
[6] = target: T1, Proto-oncogene tyrosine-protein kinase receptor Ret; test: Inhibition of RET (unknown origin) by DiscoverX KINOMEscan assay
[7] = target: Proto-oncogene tyrosine-protein kinase receptor Ret (Homo sapiens, UniProt P07949, V804M); test: Inhibition of RET V804M mutant (unknown origin) by DiscoverX KINOMEscan assay
[8] = target: Macrophage colony-stimulating factor 1 receptor (Homo sapiens, UniProt P07333); test: Inhibition of CSF1R (unknown origin) by DiscoverX KINOMEscan assay
[9] = target: Epithelial discoidin domain-containing receptor 1 (Homo sapiens, UniProt Q08345); test: Inhibition of DDR1 (unknown origin) by DiscoverX KINOMEscan assay
[10] = target: Mast/stem cell growth factor receptor Kit (Homo sapiens, UniProt P10721); test: Inhibition of KIT (unknown origin) by DiscoverX KINOMEscan assay
[11] = target: Platelet-derived growth factor receptor beta (Homo sapiens, UniProt P09619); test: Inhibition of PDGFRB (unknown origin) by DiscoverX KINOMEscan assay
[12] = target: Vascular endothelial growth factor receptor 2 (Homo sapiens, UniProt P35968); test: Inhibition of VEGFR2 (unknown origin) by DiscoverX KINOMEscan assay
[13] = target: Epidermal growth factor receptor (Homo sapiens, UniProt P00533); test: Inhibition of EGFR (unknown origin) by DiscoverX KINOMEscan assay
[14] = target: Proto-oncogene tyrosine-protein kinase receptor Ret (Mus musculus) (UniProt P35546); test: Inhibition of RET signalling pathway in mouse BaF3 cells harboring CCDC6-RET assessed as suppression of RET phosphorylation at 33.3 nM incubated for 4 hrs by Western blot analysis; format: cell-based
[15] = target: Proto-oncogene tyrosine-protein kinase receptor Ret (Mus musculus) (UniProt P35546); test: Inhibition of RET signalling pathway in mouse BaF3 cells harboring CCDC6-RET-V804M mutant assessed as suppression of RET phosphorylation at 33.3 nM incubated for 4 hrs by Western blot analysis; format: cell-based
[16] = target: Proto-oncogene tyrosine-protein kinase receptor Ret (Mus musculus) (UniProt P35546); test: Inhibition of RET signalling pathway in mouse BaF3 cells harboring CCDC6-RET-G810C mutant assessed as suppression of RET phosphorylation at 33.3 nM incubated for 4 hrs by Western blot analysis; format: cell-based
[17] = target: Proto-oncogene tyrosine-protein kinase receptor Ret (Mus musculus) (UniProt P35546); test: Inhibition of RET signalling pathway in mouse BaF3 cells harboring CCDC6-RET assessed as suppression of SHC activation at 33.3 nM incubated for 4 hrs by Western blot analysis; format: cell-based
[18] = target: Proto-oncogene tyrosine-protein kinase receptor Ret (Mus musculus) (UniProt P35546); test: Inhibition of RET signalling pathway in mouse BaF3 cells harboring CCDC6-RET-V804M mutant assessed as suppression of SHC activation at 33.3 nM incubated for 4 hrs by Western blot analysis; format: cell-based
[19] = target: Proto-oncogene tyrosine-protein kinase receptor Ret (Mus musculus) (UniProt P35546); test: Inhibition of RET signalling pathway in mouse BaF3 cells harboring CCDC6-RET-G810C mutant assessed as suppression of SHC activation at 33.3 nM incubated for 4 hrs by Western blot analysis; format: cell-based
[20] = target: Proto-oncogene tyrosine-protein kinase receptor Ret (Mus musculus) (UniProt P35546); test: Inhibition of RET signalling pathway in mouse BaF3 cells harboring CCDC6-RET-G810C mutant assessed as suppression of RET activation incubated for 4 hrs by Western blot analysis; format: cell-based; settings: dose <= 300.0 nM
[21] = target: Proto-oncogene tyrosine-protein kinase receptor Ret (Mus musculus) (UniProt P35546); test: Inhibition of RET signalling pathway in mouse BaF3 cells harboring CCDC6-RET-G810C mutant assessed as suppression of SHC activation incubated for 4 hrs by Western blot analysis; format: cell-based; settings: dose <= 300.0 nM
[22] = AUC (0 to infinity) in Sprague-Dawley rat at 5 mg/kg, iv; format: ADME, organism-based; set-up: dose 5 mg/kg, route iv; settings: in vivo
[23] = Cmax in Sprague-Dawley rat at 5 mg/kg, iv; format: ADME, organism-based; set-up: dose 5 mg/kg, route iv; settings: in vivo
[24] = Half life in Sprague-Dawley rat at 5 mg/kg, iv; format: ADME, organism-based; settings: in vivo
[25] = AUC (0 to infinity) in fasted Sprague-Dawley rat at 25 mg/kg, po; format: ADME, organism-based; set-up: dose 25 mg/kg, route po; settings: in vivo
[26] = Cmax in fasted Sprague-Dawley rat at 25 mg/kg, po; format: ADME, organism-based; set-up: dose 25 mg/kg, route po; settings: in vivo
[27] = Tmax in fasted Sprague-Dawley rat at 25 mg/kg, po; format: ADME, organism-based; settings: in vivo
[28] = Half life in fasted Sprague-Dawley rat at 25 mg/kg, po; format: ADME, organism-based; settings: in vivo
[29] = Bioavailability in fasted Sprague-Dawley rat at 25 mg/kg, po; format: ADME, organism-based; settings: in vivo
[30] = system: BaF3; test: Antitumor activity against mouse BaF3 cells expressing CCDC6-RET-V804M xenografted in CB17-SCID mouse model assessed as tumor growth inhibition at 30 mg/kg, po qd via gavage for 14 days relative to control; format: functional; settings: BaF3, 336 h, time 14 day, read-out: TGI
[31] = system: BaF3; test: Antitumor activity against mouse BaF3 cells expressing CCDC6-RET-V804M xenografted in CB17-SCID mouse model assessed as tumor growth inhibition at 60 mg/kg, po qd via gavage for 14 days relative to control; format: functional; settings: BaF3, 336 h, time 14 day, read-out: TGI
[32] = Toxicity in CB17-SCID mouse model xenografted with mouse BaF3 cells expressing CCDC6-RET-V804M assessed as animal mortality at 30 to 60 mg/kg, po qd via gavage for 14 days; format: organism-based; settings: in vivo, 336 h, dose 30-60 mg/kg, time 14 day
[33] = Toxicity in CB17-SCID mouse model xenografted with mouse BaF3 cells expressing CCDC6-RET-V804M assessed as body weight loss at 30 to 60 mg/kg, po qd via gavage for 14 days; format: organism-based; settings: in vivo, 336 h, dose 30-60 mg/kg, time 14 day
[34] = system: BaF3; test: cells; settings: Mus musculus, BaF3, 72 h
Description: Antiproliferative activity against mouse BaF3 cells incubated for 72 hrs by CCK8 assay

Sequence of Proto-oncogene tyrosine-protein kinase receptor Ret (Mus musculus) (P35546 whole entry): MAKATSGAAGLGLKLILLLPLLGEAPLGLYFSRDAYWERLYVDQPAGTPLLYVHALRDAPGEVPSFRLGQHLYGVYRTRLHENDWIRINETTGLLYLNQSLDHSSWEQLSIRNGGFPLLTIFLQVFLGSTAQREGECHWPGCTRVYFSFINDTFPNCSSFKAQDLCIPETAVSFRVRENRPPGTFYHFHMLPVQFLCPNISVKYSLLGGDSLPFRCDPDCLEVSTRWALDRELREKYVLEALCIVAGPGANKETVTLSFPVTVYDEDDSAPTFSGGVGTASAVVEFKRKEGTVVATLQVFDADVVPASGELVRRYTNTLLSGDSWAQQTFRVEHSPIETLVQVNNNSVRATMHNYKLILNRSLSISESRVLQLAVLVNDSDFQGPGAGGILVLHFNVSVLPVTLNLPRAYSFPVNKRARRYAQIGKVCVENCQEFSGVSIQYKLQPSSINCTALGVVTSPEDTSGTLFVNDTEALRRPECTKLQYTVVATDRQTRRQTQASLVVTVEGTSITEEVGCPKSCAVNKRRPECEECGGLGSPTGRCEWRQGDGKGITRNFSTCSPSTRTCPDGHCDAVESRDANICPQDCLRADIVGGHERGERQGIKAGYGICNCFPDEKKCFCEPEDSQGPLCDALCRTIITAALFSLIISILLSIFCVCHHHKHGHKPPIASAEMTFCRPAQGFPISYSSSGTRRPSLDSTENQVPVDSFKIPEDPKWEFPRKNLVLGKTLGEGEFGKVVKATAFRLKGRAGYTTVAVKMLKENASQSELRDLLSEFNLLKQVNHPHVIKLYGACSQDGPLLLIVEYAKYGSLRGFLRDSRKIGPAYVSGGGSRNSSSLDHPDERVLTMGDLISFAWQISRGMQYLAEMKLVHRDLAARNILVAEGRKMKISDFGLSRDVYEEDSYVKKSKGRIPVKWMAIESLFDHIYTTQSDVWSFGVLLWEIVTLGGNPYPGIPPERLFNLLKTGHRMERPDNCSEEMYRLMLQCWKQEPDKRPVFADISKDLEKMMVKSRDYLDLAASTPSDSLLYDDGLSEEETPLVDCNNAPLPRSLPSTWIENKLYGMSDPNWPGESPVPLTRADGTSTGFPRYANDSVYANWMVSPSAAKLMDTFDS
T1 sequence (P07949 whole entry): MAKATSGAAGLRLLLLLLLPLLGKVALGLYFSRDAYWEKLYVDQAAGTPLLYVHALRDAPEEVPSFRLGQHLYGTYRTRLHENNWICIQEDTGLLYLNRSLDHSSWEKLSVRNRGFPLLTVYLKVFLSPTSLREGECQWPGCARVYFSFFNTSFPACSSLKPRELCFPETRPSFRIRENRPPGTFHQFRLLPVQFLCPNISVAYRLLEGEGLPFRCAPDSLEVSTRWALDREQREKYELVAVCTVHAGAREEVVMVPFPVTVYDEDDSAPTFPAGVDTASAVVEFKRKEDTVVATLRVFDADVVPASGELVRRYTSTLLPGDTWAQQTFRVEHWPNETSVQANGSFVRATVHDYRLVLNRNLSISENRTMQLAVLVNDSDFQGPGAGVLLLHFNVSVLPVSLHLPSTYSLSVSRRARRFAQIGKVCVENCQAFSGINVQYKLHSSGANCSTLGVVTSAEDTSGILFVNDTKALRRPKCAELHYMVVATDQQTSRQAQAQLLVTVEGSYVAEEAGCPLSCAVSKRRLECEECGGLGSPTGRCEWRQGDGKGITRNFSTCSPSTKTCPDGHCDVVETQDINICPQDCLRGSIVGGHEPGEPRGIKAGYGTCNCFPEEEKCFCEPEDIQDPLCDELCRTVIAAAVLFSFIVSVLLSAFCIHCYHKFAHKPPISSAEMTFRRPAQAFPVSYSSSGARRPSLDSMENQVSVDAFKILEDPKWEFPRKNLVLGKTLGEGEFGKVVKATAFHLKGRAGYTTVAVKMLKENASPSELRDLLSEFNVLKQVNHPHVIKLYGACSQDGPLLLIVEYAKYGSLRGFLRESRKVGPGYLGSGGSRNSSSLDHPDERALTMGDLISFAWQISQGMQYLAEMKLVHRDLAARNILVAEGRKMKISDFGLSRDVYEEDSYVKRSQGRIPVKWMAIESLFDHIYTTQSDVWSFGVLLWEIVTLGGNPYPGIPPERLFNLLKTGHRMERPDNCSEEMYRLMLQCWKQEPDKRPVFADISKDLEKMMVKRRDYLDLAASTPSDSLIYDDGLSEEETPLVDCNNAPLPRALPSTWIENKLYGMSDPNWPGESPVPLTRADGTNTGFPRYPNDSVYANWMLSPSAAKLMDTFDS
Sequence of Mast/stem cell growth factor receptor Kit (P10721 whole entry): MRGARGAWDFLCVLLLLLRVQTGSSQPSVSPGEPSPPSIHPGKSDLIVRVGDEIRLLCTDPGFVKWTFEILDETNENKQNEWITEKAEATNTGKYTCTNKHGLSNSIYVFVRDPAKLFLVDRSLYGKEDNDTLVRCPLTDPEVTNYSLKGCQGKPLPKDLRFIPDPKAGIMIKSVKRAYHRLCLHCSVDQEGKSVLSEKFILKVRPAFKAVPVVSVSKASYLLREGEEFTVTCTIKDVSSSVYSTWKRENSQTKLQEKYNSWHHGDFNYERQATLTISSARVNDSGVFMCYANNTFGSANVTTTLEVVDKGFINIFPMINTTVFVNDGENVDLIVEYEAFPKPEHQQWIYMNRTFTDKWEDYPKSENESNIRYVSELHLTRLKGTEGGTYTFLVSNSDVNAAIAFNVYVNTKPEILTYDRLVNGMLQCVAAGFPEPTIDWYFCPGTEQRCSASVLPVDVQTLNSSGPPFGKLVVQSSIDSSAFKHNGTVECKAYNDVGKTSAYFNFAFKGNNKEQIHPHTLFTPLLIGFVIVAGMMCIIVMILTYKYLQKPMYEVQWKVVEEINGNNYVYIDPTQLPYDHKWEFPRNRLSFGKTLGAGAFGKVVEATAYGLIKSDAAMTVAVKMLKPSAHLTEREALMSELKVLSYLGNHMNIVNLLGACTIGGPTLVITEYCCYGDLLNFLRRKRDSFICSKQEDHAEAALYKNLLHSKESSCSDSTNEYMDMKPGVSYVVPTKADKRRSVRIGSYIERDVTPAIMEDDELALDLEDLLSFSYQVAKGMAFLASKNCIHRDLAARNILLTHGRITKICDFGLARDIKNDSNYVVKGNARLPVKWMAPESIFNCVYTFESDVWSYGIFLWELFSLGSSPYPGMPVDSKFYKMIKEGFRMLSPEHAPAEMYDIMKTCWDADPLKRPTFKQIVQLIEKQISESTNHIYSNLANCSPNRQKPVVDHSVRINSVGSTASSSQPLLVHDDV
Sequence of Epidermal growth factor receptor (P00533 whole entry): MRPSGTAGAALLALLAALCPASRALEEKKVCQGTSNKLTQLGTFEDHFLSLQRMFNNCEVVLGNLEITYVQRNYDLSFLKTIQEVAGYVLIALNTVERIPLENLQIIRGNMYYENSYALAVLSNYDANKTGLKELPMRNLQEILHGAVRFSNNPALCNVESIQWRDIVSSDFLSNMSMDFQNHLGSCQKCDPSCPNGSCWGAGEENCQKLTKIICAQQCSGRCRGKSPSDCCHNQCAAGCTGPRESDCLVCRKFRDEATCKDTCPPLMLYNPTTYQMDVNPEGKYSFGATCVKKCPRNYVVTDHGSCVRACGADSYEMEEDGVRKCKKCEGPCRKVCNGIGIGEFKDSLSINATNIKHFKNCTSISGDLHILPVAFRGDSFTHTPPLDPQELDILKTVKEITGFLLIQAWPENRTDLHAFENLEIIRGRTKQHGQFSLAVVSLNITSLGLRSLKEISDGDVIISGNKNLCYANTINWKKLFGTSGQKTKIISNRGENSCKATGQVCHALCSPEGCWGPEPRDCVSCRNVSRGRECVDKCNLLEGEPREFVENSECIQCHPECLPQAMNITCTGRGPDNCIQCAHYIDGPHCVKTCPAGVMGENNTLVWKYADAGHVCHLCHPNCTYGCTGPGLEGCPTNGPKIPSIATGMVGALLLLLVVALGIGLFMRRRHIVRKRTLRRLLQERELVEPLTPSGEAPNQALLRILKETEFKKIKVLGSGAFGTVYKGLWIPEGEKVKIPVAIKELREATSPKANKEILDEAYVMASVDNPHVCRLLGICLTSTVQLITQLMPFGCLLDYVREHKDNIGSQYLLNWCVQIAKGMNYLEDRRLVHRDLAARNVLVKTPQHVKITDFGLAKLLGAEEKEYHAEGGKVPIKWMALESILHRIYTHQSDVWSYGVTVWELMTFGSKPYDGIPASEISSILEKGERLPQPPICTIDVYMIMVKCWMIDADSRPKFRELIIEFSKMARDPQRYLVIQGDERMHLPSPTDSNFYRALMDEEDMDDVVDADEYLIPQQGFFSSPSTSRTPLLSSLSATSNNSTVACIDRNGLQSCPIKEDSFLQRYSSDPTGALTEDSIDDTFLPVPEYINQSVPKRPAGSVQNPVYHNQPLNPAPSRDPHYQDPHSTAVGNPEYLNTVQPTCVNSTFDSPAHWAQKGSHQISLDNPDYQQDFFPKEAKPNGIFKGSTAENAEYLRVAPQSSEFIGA

SMILES: CC(C)(c1cc(NC(=O)Nc2ccc(-c3cc(-c4ccc(OCCN5CCOCC5)cc4)[nH]n3)cc2)no1)C(F)(F)F
- Kd [1]: 6.5 nM
- IC50 [2]: 13.6 nM
- IC50 [3]: 12.1 nM
- IC50 [4]: 84.6 nM
- IC50 [5]: 401 nM
- IC50 [6]: 20.9 nM
- IC50 [7]: 18.3 nM
- IC50 [8]: 108 nM
- IC50 [9]: 66.6 nM
- IC50 [10]: 45.1 nM
- IC50 [11]: 16.3 nM
- IC50 [12]: 380 nM
- IC50 [13]: > 1000 nM
- inhibition [14]: Active
- inhibition [15]: Active
- inhibition [16]: Active
- inhibition [17]: Active
- inhibition [18]: Active
- inhibition [19]: Active
- inhibition [20]: Dose-Dependent Effect
- inhibition [21]: Dose-Dependent Effect
- AUC(0-inf) [22]: 32500 ng·h/mL
- Cmax [23]: 9970 ng/mL
- half-life [24]: 8.8 h
- AUC(0-inf) [25]: 43800 ng·h/mL
- Cmax [26]: 2060 ng/mL
- Tmax [27]: 6.7 h
- half-life [28]: 12.4 h
- bioavailability [29]: 21.1%
- inhibition in vivo at 30 mg/kg [30]: 83.6%
- inhibition in vivo at 60 mg/kg [31]: 94.6%
- Activity [32]: Non-Toxic
- Activity [33]: Non-Toxic
- IC50 [34]: 3870 nM
